Format in all cases: functional
The subject of experiment [1] is Aspergillus flavus. Briefly: Antifungal activity against Aspergillus flavus at 500 ug/ml after 72 hrs by agar well diffusion method.
For experiment [2], the system named is Rhizoctonia solani. Briefly: Antifungal activity against Rhizoctonia solani at 200 ug/ml after 72 hrs by agar well diffusion method.
Experiment [3] deals with Aspergillus niger. Briefly: Antifungal activity against Aspergillus niger at 100 ug/ml after 72 hrs by agar well diffusion method.
Experiment [4] deals with Fusarium oxysporum. The experiment can be described thus: Antifungal activity against Fusarium oxysporum at 500 ug/ml after 72 hrs by agar well diffusion method.
Experiment [5] has as its system Fusarium oxysporum. The experiment can be described thus: Antifungal activity against Fusarium oxysporum at 50 ug/ml after 72 hrs by agar well diffusion method.
In experiment [6] the test system is Aspergillus niger. The experiment can be described thus: Antifungal activity against Aspergillus niger after 72 hrs by agar well diffusion method.
In experiment [7] the test system is Aspergillus flavus. The experiment can be described thus: Antifungal activity against Aspergillus flavus at 100 ug/ml after 72 hrs by agar well diffusion method.
The subject of experiment [8] is Aspergillus niger. The experiment can be described thus: Antifungal activity against Aspergillus niger at 300 ug/ml after 72 hrs by agar well diffusion method.
Experiment [9] concerns Rhizoctonia solani. Briefly: Antifungal activity against Rhizoctonia solani at 50 ug/ml after 72 hrs by agar well diffusion method.
Experiment [10] has as its system Fusarium oxysporum. The experiment can be described thus: Antifungal activity against Fusarium oxysporum at 100 ug/ml after 72 hrs by agar well diffusion method.
The subject of experiment [11] is Rhizoctonia solani. The experiment can be described thus: Antifungal activity against Rhizoctonia solani at 500 ug/ml after 72 hrs by agar well diffusion method.
The test system of experiment [12] is Fusarium oxysporum. Briefly: Antifungal activity against Fusarium oxysporum at 300 ug/ml after 72 hrs by agar well diffusion method.
For experiment [13], the system named is Rhizoctonia solani. The experiment can be described thus: Antifungal activity against Rhizoctonia solani after 72 hrs by agar well diffusion method.
The test system of experiment [14] is Rhizoctonia solani. The experiment can be described thus: Antifungal activity against Rhizoctonia solani at 100 ug/ml after 72 hrs by agar well diffusion method.
The test system of experiment [15] is Aspergillus flavus. Briefly: Antifungal activity against Aspergillus flavus at 50 ug/ml after 72 hrs by agar well diffusion method.
In experiment [16] the test system is Fusarium oxysporum. The experiment can be described thus: Antifungal activity against Fusarium oxysporum after 72 hrs by agar well diffusion method.
In experiment [17] the test system is Aspergillus niger. Briefly: Antifungal activity against Aspergillus niger at 200 ug/ml after 72 hrs by agar well diffusion method.
Experiment [18] concerns Aspergillus flavus. The experiment can be described thus: Antifungal activity against Aspergillus flavus at 200 ug/ml after 72 hrs by agar well diffusion method.
The test system of experiment [19] is Fusarium oxysporum. Briefly: Antifungal activity against Fusarium oxysporum at 200 ug/ml after 72 hrs by agar well diffusion method.
The test system of experiment [20] is Aspergillus flavus. Briefly: Antifungal activity against Aspergillus flavus after 72 hrs by agar well diffusion method.
Experiment [21] concerns Aspergillus niger. The experiment can be described thus: Antifungal activity against Aspergillus niger at 500 ug/ml after 72 hrs by agar well diffusion method.
Experiment [22] has as its system Rhizoctonia solani. Briefly: Antifungal activity against Rhizoctonia solani at 300 ug/ml after 72 hrs by agar well diffusion method.
In experiment [23] the test system is Aspergillus niger. The experiment can be described thus: Antifungal activity against Aspergillus niger at 50 ug/ml after 72 hrs by agar well diffusion method.
The subject of experiment [24] is Aspergillus flavus. The experiment can be described thus: Antifungal activity against Aspergillus flavus at 300 ug/ml after 72 hrs by agar well diffusion method.

For NYSTATIN, the inhibition zone (IZ) stood at 32 mm in the experiment on Aspergillus flavus [1]; 22 mm with Rhizoctonia solani [2]; 14 mm in the experiment on Aspergillus niger [3]; 37 mm in the experiment with Fusarium oxysporum [4]; 15 mm in the experiment with Fusarium oxysporum [5]; 13 mm in the experiment with Aspergillus flavus [7]. For the same sequence, the inhibition zone (IZ) with Aspergillus niger [8] stood at 23 mm; in the experiment with Rhizoctonia solani [9], 16 mm; in the experiment on Fusarium oxysporum [10], 18 mm; with Rhizoctonia solani [11], 38 mm; with Fusarium oxysporum [12], 29 mm; with Rhizoctonia solani [14], 20 mm. For the same sequence, the inhibition zone (IZ) in the experiment with Aspergillus flavus [15] was determined as 11 mm; in the experiment with Aspergillus niger [17], 16.6 mm; in the experiment with Aspergillus flavus [18], 16 mm; with Fusarium oxysporum [19], 21 mm; in the experiment on Aspergillus niger [21], 34 mm; in the experiment with Rhizoctonia solani [22], 30 mm. Besides, the values for the inhibition zone (IZ) in the experiment with Aspergillus niger [23] and in the experiment with Aspergillus flavus [24] were 11.2 mm and 22 mm, respectively. In addition, the MIC against Aspergillus niger [6] is 20 µg/mL; in the experiment on Rhizoctonia solani [13], 15 µg/mL; with Fusarium oxysporum [16] it was 15 µg/mL; against Aspergillus flavus [20] it was 20 µg/mL.

These data come from ChEMBL document CHEMBL2429768, “Eco-friendly synthesis and antimicrobial activities of substituted-5-(1H-indol-3-yl)methylene)-2,2-dimethyl-1,3-dioxane-4,6-dione derivatives” (2013).
